Assay results published in patent publication US20070134349A1, “Methods of treating hematological malignancies” (DUKE UNIVERSITY, priority 2005, published 2007).
Where two headings read alike, the source gives them in different places.

Legend:
[1] = in human; cited from earlier work
[2] = tested on: histones H3 and H4; test: Western blot of acetylated histones H3 and H4 in NB4 cells; format: cell-based
Method: (§1) Whole-cell lysates were prepared by washing the cells with PBS and resuspending them in 1 ml of lysis buffer (1× phosphate-buffered saline, 1 mM EDTA, 1.5 mg/ml of iodoacetamide, 100 μM sodium orthovanadate, 0.5% Triton X-100, 20 mM β-glycerolphosphate, 0.2 mM phenylmethylsulfonyl fluoride, and 1× complete protease inhibitor cocktail). After clarification by a 15-min centrifugation in a microcentrifuge at 4° C., the resulting supernatant was collected. 20-50 μg of protein extracts were separated on a 10% SDS-polyacrylamide gel and transferred to a nitrocellulose membrane. The membrane was blocked with 5% nonfat milk followed by incubation with antibodies. The immunocomplex was visualized by chemiluminescence.

[3] = tested on: C/EBPβ; test: Western blot of phospho-C/EBPβ (Thr-235) and C/EBPβ in NB4 cells; format: cell-based
Method: as §1

[4] = tested on: NB4 cells; test: Apoptosis by Annexin V binding (flow cytometry) in NB4 cells; format: cell-based; details: MAA 5 mM alone, NB4 cells, 3 days
Method: (§2) NB4 cells were provided by Dr. Ronald Evans (Salk Institute, La Jolla, Calif.). NB4-R4 cells were provided by Dr. Wilson Miller (McGill University, Montreal, Canada). HL-60, U-937, and Kasumi-1 cells were obtained from the American Type Culture Collection (Rockville, Md.). NB4 and NB4-R4 cells were grown in RPMI medium 1640 containing 10% fetal bovine serum. U-937 cells were grown in RPMI medium 1640 containing 10 mM HEPES, 1 mM sodium pyruvate, 4.5 g/L glucose, and 10% fetal bovine serum. HL-60 cells were grown in Iscove's Modified Dulbecco's medium containing 20% fetal bovine serum. Kasumi-1 cells were grown in RPMI medium 1640 containing 10 mM HEPES, 1 mM sodium pyruvate, 4.5 g/L glucose, and 20% fetal bovine serum.
(§3) To determine the percentage of cells that undergo apoptosis, after incubation with APC-CD11c antibody in the dark at 4° C., cells were washed twice with PBS and incubated at room temperature for 15 min with PE-conjugated Annexin-V (BD Pharmingen) and 7-AAD in binding buffer (10 mM HEPES, pH 7.4, 140 mM NaCI, 2.5 mM CaCl2) and analyzed by FACScan for CD11c expression and Annexin V binding. Apoptotic cells are those that stained positive for Annexin V and negative for 7-AAD.

[5] = tested on: ERK1/2; test: Western blot of phospho-ERK1/2 in NB4 cells; format: cell-based; details: 24 h
Method: as §1

[6] = tested on: U-937 cells; test: CD11c expression by flow cytometry in U-937 cells; format: cell-based; details: lower concentrations, 3 days
Method: as §2
(§4) To determine the percentage of cells that express differentiation markers, cells were washed once and resuspended in RPMI medium 1640 containing 3% fetal bovine serum. Phycoerythrin (PE)-conjugated CD11b, 5 Allophycocyanin (APC)-CD11c or control antibodies (BD Pharmingen, San Diego, Calif.) were added into cell suspension. After 30 minutes of incubation in the dark at 4° C., the cells were washed twice and resuspended in RPMI medium 1640 containing 7-amino actinomycin D (AAD) (for dead cell exclusion) and analyzed by FACScan (Becton Dickinson).

[7] = tested on: Kasumi-1 cells; test: CD11c expression by flow cytometry in Kasumi-1 cells; format: cell-based; details: 3 days
Method: as §2, §4

[8] = tested on: U-937 cells; test: Annexin V binding in U-937 cells; format: cell-based; details: higher concentrations, 3 days
Method: as §2, §3

[9] = target: T1, PML-RARα (Homo sapiens, UniProt P10276+P29590); test: Western blot of PML-RARα and RARα in NB4 cells; format: cell-based; details: 3 days
T1 construct: PML portion (fusion partner, UniProt P29590); endogenous in cells; host or cells: NB4 cells
T1 sequence (P29590+P10276 with tags, fused parts or gaps): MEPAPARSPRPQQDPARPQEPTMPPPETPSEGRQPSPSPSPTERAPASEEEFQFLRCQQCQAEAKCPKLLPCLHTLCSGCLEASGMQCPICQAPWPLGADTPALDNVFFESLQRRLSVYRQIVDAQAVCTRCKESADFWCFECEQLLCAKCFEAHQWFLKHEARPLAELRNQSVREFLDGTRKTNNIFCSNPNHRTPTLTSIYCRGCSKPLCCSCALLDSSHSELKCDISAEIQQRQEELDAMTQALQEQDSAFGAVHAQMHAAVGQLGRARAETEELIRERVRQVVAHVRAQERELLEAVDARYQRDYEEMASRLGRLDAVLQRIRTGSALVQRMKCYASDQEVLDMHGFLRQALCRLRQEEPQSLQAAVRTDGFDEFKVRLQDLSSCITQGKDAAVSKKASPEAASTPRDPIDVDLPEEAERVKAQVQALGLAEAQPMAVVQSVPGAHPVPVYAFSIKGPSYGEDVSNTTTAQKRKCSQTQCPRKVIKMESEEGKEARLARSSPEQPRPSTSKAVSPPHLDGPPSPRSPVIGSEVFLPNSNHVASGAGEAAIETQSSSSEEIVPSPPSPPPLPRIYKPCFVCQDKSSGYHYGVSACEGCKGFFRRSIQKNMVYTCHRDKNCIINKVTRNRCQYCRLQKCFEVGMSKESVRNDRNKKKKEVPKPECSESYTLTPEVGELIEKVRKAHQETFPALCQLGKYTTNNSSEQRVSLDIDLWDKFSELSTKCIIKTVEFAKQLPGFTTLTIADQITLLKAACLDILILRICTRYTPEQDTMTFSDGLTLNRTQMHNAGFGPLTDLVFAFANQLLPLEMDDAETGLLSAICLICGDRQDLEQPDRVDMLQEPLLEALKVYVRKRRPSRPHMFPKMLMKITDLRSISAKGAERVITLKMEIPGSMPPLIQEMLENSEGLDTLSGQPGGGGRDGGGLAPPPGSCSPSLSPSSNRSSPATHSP
Method: as §1

[10] = cited from earlier work
[11] = tested on: H3; test: Western blot of acetyl-H3 and phospho-H3 in U-937 cells; format: cell-based; details: higher concentrations, 18 h
Method: as §1

[12] = in non-human primates; cited from earlier work
[13] = tested on: RARE-TK-Luc reporter; test: RARE-TK-Luc reporter transient transfection in NB4 cells; format: cell-based; details: MAA 5 mM, 19 h
Method: Electroporation was performed using a Gene Pulser (BioRad, Hercules, Calif.) apparatus at 300 V and 960 μF capacity. […] Cells were harvested 19 h after transfection/treatment for luciferase and β-galactosidase activities.

[14] = tested on: ERK1/2; test: Western blot of phospho-ERK1/2 in U-937 cells; format: cell-based; details: higher concentrations, 18 h, total ERK1/2 unaffected
Method: as §1

[15] = tested on: NB4 cells; test: Differentiation markers CD11c/CD11b by flow cytometry in NB4 cells; format: cell-based
Method: as §2, §4

[16] = in rats; cited from earlier work
[17] = tested on: HL-60 cells; test: CD11c expression by flow cytometry in HL-60 cells; format: cell-based; details: 48 h
Method: as §2, §4

[18] = tested on: H3; test: Western blot of phospho-H3 (Ser-10) in NB4 cells; format: cell-based; details: NB4 cells, 24 h
Method: as §1

[19] = cited from earlier work; remark: listed apart in the source
[20] = industrial solvent of which MAA is a metabolite; cited from earlier work

COCC(=O)O [MAA, methoxyacetic acid]
elimination half-life [1]: 77.1 h | HDACI potency relative to BA ([2]; as shown in the applicant's study (histone acetylation)): less potent HDACI than BA | H3 or H4 acetylation ([2]; concentrations optimal for differentiation, NB4 cells, 24 h): no significant increase | H3 and H4 acetylation ([2]; concentrations required for apoptosis, NB4 cells, 24 h): robust acetylation | level of phosphorylated C/EBPβ at Thr-235 ([3]; 17 h): dose-dependent increase | phosphorylation of C/EBPβ at Thr-235 ([3]; lower concentrations, 24 h): maximal phosphorylation | apoptosis (Annexin V) [4]: does not induce significant amount of apoptosis | levels of phosphorylated ERK ([5]; higher concentrations (no differentiating effects), total ERK not decreased): dramatically decreased | constitutive levels of phosphorylated ERK ([5]; lower concentrations): did not change | expression of the differentiation marker CD11c [6]: increasing expression | percentage of cells expressing CD11c [7]: increased | apoptosis (Annexin V) [8]: inducing apoptosis | degradation of RARα and accumulation of ΔPML-RARα [9]: not observed | expression level of PML-RARα fusion protein [9]: no effect | half-life in vivo ([10]; Shih et al 2001): long | H3 acetylation and phosphorylation [11]: increase | elimination half-life [12]: 20 h | transcription of RARE-containing reporter gene (RARE-TK-Luc) [13]: does not activate | activity of ERK1/2 (phospho-ERK1/2) [14]: downregulate | percentage of cells expressing CD11c induced by ATO ([15]; MAA 1 mM added to ATO 0.1 to 1 μM, NB4 cells, 3 days): significantly increases | percentage of cells expressing CD11b ([15]; MAA 1 mM alone, NB4 cells, 24 h, from 26%): 51% | expression of CD11c and CD11b ([15]; MAA 5 mM alone, NB4 cells, 3 days): can induce expression | NB4 cell differentiation (CD11c) ([15]; MAA 5 mM, 21 h): can induce NB4 cell differentiation | percentage of cells expressing CD11c ([15]; NB4 cells, 24 h, from 32%): 41% | percentage of NB4 cells expressing the myeloid differentiation markers CD11c and CD11b ([15]; NB4 cells, 3 days): comparable to ATRA | NB4 differentiation ([15]; NB4 cells, FIG. 10): potent inducers | elimination half-life [16]: 13 to 18 h | differentiation as evidenced by expression of CD11c [17]: induce differentiation | H3 phosphorylation (Ser-10) ([18]; higher concentrations): dramatically increased | H3 phosphorylation (Ser-10) ([18]; lower concentrations): without effect

CC(/C=C/C(=O)NO)=C\[C@@H](C)C(=O)c1ccc(N(C)C)cc1 [TSA, trichostatin A]
activity in vivo (anti-tumor) [19]: does not exhibit significant activity | metabolism ([10]; in vivo): rapidly metabolized

COCCO [ethylene glycol monomethyl ether]
developmental toxicity [20]: developmental toxicant
